Laboratory results published in patent publication US9279134B2, “Methods for isolating bacteria” (DEINOVE, priority 2009, dated 2016).

Tests used:
[1] = system: Deinococcus radiopugnans strain DRH40; assay: Soil sample suspension maintained in presence of bleocin, growth of colonies; format: cell-based; conditions: 50 μg/ml bleocin
Protocol: (§1) Soil samples containing Deinococcus radiopugnans strain DRH40 were placed in suspension under conditions similar to that of example 2. In place of irradiation, the suspensions were maintained in the absence (control) or presence of 50 μg/ml or 100 μg/ml of bleocin.

[2] = system: indigenous microflora; assay: as above; format: cell-based; conditions: 50 μg/ml bleocin
Protocol: as §1

bleocin
growing pink colonies (Deinococcus) [1]: pink colonies are present | effect on indigenous microflora [2]: decreases drastically
